Experiment: excess molar enthalpy (molar enthalpy of mixing); xn = mol fraction of the nth substance listed
Conditions: 298.15 K, 101 kPa, Liquid, Calvet calorimetry

NCCO [2-aminoethan-1-ol] + c1ccncc1
Conditions	excess molar enthalpy [kcal/mol]
x2 = 0.00998	0.00765
x2 = 0.0187	0.0143
x2 = 0.02728	0.021
x2 = 0.0357	0.0272
x2 = 0.04398	0.0335
x2 = 0.05212	0.0394
x2 = 0.06012	0.0452
x2 = 0.06798	0.0509
x2 = 0.07572	0.0562
x2 = 0.08333	0.0614
x2 = 0.09081	0.0667
x2 = 0.09818	0.0715
x2 = 0.1054	0.0762
x2 = 0.1125	0.0808
x2 = 0.1196	0.0851
x2 = 0.1265	0.0894
x2 = 0.1333	0.093
x2 = 0.14	0.09656
x2 = 0.1466	0.1001
x2 = 0.153	0.1035
x2 = 0.1594	0.1066
x2 = 0.1657	0.1097
x2 = 0.1719	0.113
x2 = 0.1782	0.115
x2 = 0.1845	0.118
x2 = 0.1907	0.1212
x2 = 0.197	0.124
x2 = 0.2032	0.1267
x2 = 0.2095	0.1293
x2 = 0.2157	0.1319
x2 = 0.222	0.1343
x2 = 0.2282	0.137
x2 = 0.2345	0.1393
x2 = 0.2407	0.1417
x2 = 0.247	0.1439
x2 = 0.2532	0.1463
x2 = 0.2595	0.1484
x2 = 0.2657	0.1508
x2 = 0.272	0.153
x2 = 0.2782	0.1551
x2 = 0.2845	0.157
x2 = 0.2907	0.1592
x2 = 0.297	0.1611
x2 = 0.3032	0.163
x2 = 0.3095	0.1649
x2 = 0.3157	0.1668
x2 = 0.322	0.1687
x2 = 0.3282	0.1704
x2 = 0.3345	0.1723
x2 = 0.3407	0.174
x2 = 0.347	0.1757
x2 = 0.3532	0.1773
x2 = 0.3595	0.179
x2 = 0.3621	0.1797
x2 = 0.3652	0.1804
x2 = 0.3684	0.1812
x2 = 0.3716	0.1821
x2 = 0.3748	0.1828
x2 = 0.3781	0.1836
x2 = 0.3815	0.1845
x2 = 0.385	0.1852
x2 = 0.3885	0.1859
x2 = 0.3921	0.1867
x2 = 0.3957	0.1869
x2 = 0.3994	0.1879
x2 = 0.4032	0.1888
x2 = 0.407	0.1898
x2 = 0.4109	0.1905
x2 = 0.4149	0.1914
x2 = 0.419	0.1924
x2 = 0.4232	0.1934
x2 = 0.4274	0.1943
x2 = 0.4317	0.195
x2 = 0.4361	0.196
x2 = 0.4406	0.1969
x2 = 0.4452	0.1977
x2 = 0.4499	0.1986
x2 = 0.4547	0.1993
x2 = 0.4596	0.2003
x2 = 0.4646	0.201
x2 = 0.4698	0.202
x2 = 0.475	0.2027
x2 = 0.4803	0.2034
x2 = 0.4858	0.2043
x2 = 0.4914	0.2051
x2 = 0.4971	0.2055
x2 = 0.503	0.2063
x2 = 0.509	0.207
x2 = 0.5151	0.2075
x2 = 0.5214	0.2079
x2 = 0.5219	0.2082
x2 = 0.5284	0.2087
x2 = 0.535	0.2091
x2 = 0.5418	0.2096
x2 = 0.5488	0.2098
x2 = 0.5559	0.2103
x2 = 0.5633	0.2103
x2 = 0.5708	0.2106
x2 = 0.5786	0.2106
x2 = 0.5865	0.2106
x2 = 0.5947	0.2106
x2 = 0.6031	0.2103
x2 = 0.6117	0.2101
x2 = 0.6206	0.2096
x2 = 0.6298	0.2089
x2 = 0.6392	0.2082
x2 = 0.649	0.2072
x2 = 0.659	0.206
x2 = 0.6693	0.2046
x2 = 0.68	0.2029
x2 = 0.691	0.201
x2 = 0.7024	0.1989
x2 = 0.7141	0.1965
x2 = 0.7263	0.1934
x2 = 0.7389	0.1902
x2 = 0.7519	0.1862
x2 = 0.7654	0.1819
x2 = 0.7793	0.1766
x2 = 0.7938	0.1709
x2 = 0.8089	0.1642
x2 = 0.8245	0.1568
x2 = 0.8408	0.1482
x2 = 0.8577	0.1377
x2 = 0.8753	0.1264
x2 = 0.8936	0.113
x2 = 0.9127	0.09728
x2 = 0.9327	0.0791
x2 = 0.9535	0.0574
x2 = 0.9753	0.0323
x2 = 0.9981	0.0012
